Measurements as given in paper PMC7542596 (ACS Omega, 2020).

Assays:
[1] = tested on: Madin–Darby canine kidney (MDCK) cells; conditions: dog
[2] = tested on: H5N1 influenza virus strain A/Egypt/M7217B/2013; test: microbe, parasite or virus in culture; type: cell-based, influenza A virus (subtype H5N1); conditions: for inhibition at 125 µM / inhibition at 250 µM: MDCK, read-out: inhibition % (plaque reduction assay)

Compound | MTT assay LD50 [1] [µmol/mL] | viral count (plaque reduction assay) [2] | inhibition at 125 µM [2] [%] | inhibition at 250 µM [2] [%] | safety for healthy cells judged from LD50 values (NCI and GERAN protocol) [1] | therapeutic index (qualitative, plaque reduction assay) [2]
CSC(NC(=O)c1ccccc1)=C(C#N)C#N [3a, N-(2,2-Dicyano-1-(methylthio)vinyl)benzamide] | 200 | 5.0 × 10^6 4.0 × 10^6 PFU/mL | 16.7 | 33.3 | – | –
CCSC(NC(=O)c1ccccc1)=C(C#N)C#N [3b, N-(2,2-Dicyano-1-(ethylthio)vinyl)benzamide] | 480 | 2.2 × 10^6 9.0 × 10^5 PFU/mL | 63.3 | 85 | safe for healthy cells | higher therapeutic indices
N#CC(C#N)=C(NC(=O)c1ccccc1)SCc1ccccc1 [3c, N-(1-(Benzylthio)-2,2-dicyanovinyl)benzamide] | 200 | 2.8 × 10^6 2.1 × 10^6 PFU/mL | 53.3 | 65 | – | –
N#Cc1nnc2c(C#N)c(NC(=O)c3ccccc3)nn2c1N [6a, N-(4-Amino-3,8-dicyanopyrazolo[5,1-c][1,2,4]triazin-7-yl)benzamide] | 200 | 4.0 × 10^6 3.0 × 10^6 PFU/mL | 33.3 | 50 | – | –
CCOc1c(C#N)nnc2c(C#N)c(NC(=O)c3ccccc3)nn12 [6b, N-(3,8-Dicyano-4-ethoxypyrazolo[5,1-c][1,2,4]triazin-7-yl)benzamide] | 100 | 3.0 × 10^6 3.2 × 10^6 PFU/mL | 50 | 46.7 | – | –
N#Cc1c(NC(=O)c2ccccc2)nn2c3c(cnc12)CCC3 [8a, N-(3-Cyano-7,8-dihydro-6H-cyclopenta[e]pyrazolo[1,5-a]pyrimidin-2-yl)benzamide] | 170 | 4.0 × 10^6 2.5 × 10^6 PFU/mL | 33.3 | 58.3 | – | –
N#Cc1c(NC(=O)c2ccccc2)nn2c3c(cnc12)CCCC3 [8b, N-(3-Cyano-6,7,8,9-tetrahydrocyclohexa[e]pyrazolo[1,5-a]pyrimidin-2-yl)benzamide] | 210 | – | – | – | – | –
COc1ccc(-c2c(C#N)c(N)nc3c(C#N)c(NC(=O)c4ccccc4)nn23)cc1 [10b, N-(5-Amino-3,6-dicyano-7-(4-methoxyphenyl)pyrazolo[1,5-a]pyrimidin-2-yl)benzamide] | 140 | 1.0 × 10^6 b PFU/mL | – | – | – | higher therapeutic indices
N#Cc1c(N)nc2c(C#N)c(NC(=O)c3ccccc3)nn2c1-c1ccc(Cl)cc1 [10c, N-(5-Amino-7-(4-chlorophenyl)-3,6-dicyanopyrazolo[1,5-a]pyrimidin-2-yl)benzamide] | 120 | 4.0 × 10^6 2.0 × 10^6 PFU/mL | 33.3 | 66.7 | – | –
Cc1cc(C)n2nc(NC(=O)c3ccccc3)c(C#N)c2n1 [12a, N-(3-Cyano-5,7-dimethylpyrazolo[1,5-a]pyrimidin-2-yl)benzamide] | 210 | 4.6 × 10^6 2.0 × 10^6 PFU/mL | 23.3 | 66.7 | – | –
Cc1cc(O)n2nc(NC(=O)c3ccccc3)c(C#N)c2n1 [12b, N-(3-Cyano-7-hydroxy-5-methylpyrazolo[1,5-a]pyrimidin-2-yl)benzamide] | 190 | 5.0 × 10^6 4.0 × 10^6 PFU/mL | 16.7 | 33.3 | – | –
CC(=O)OC[C@H]1O[C@@H](SC(NC(=O)c2ccccc2)=C(C#N)C#N)[C@H](OC(C)=O)[C@H](OC(C)=O)[C@H]1OC(C)=O [21a, (2R,3S,4R,5R,6S)-2-(Acetoxymethyl)-6-((1-benzamido-2,2-dicyanovinyl)thio)tetrahydro-2H-pyran-3,4,5-triyl triacetate] | 90 | 2.2 × 10^6 2.0 × 10^6 PFU/mL | 63.3 | 66.7 | – | –
CCOC(=O)/C(C#N)=C(\NC(=O)c1ccccc1)S[C@@H]1O[C@H](COC(C)=O)[C@H](OC(C)=O)[C@@H](OC(C)=O)[C@H]1OC(C)=O [21b, (2R,3S,4R,5R,6S)-2-(Acetoxymethyl)-6-(((E)-1-benzamido-2-cyano-3-ethoxy-3-oxoprop-1-en-1-yl)thio)tetrahydro-2H-pyran-3,4,5-triyl triacetate] | 210 | 3.5 × 10^6 2.0 × 10^6 PFU/mL | 41.7 | 66.7 | – | –
N#Cc1c(NC(=O)c2ccccc2)n[nH]c1N [compound 4, N-(5-Amino-4-cyano-1H-pyrazol-3-yl)benzamide] | 30 | 2.0 × 10^6 1.4 × 10^6 PFU/mL | 66.7 | 76.7 | – | higher therapeutic indices
CCOC(=O)/C(C#N)=C(\NC(=O)c1ccccc1)SC [compound 14, (E)-Ethyl 3-benzamido-2-cyano-3-(methylthio)acrylate] | 130 | 5.0 × 10^6 5.0 × 10^6 PFU/mL | 16.7 | 16.7 | – | –
CCOc1n[nH]c(-c2ccccc2)n1 [compound 19, 3-Ethoxy-5-phenyl-1H-1,2,4-triazole] | 230 | 2.2 × 10^6 2.0 × 10^6 PFU/mL | 63.3 | 66.7 | – | –
CC(=O)N[C@H]1[C@H]([C@H](O)[C@H](O)CO)OC(C(=O)O)=C[C@@H]1N=C(N)N [zanamivir, reference compound] | – | 5.0 × 10^4 1.1 × 10^4 PFU/mL | 99.2 | 99.8 | – | –
